Molecules are shown by their SMILES. Several values for one entry are separate records, joined by “and”; a condition that tells them apart may be missing. Equal values may be shown once. Inconclusive results and toxic doses are left out.

The assay has as its system P388 leukemia ip, CD2F1 mice, survival T/C. Briefly: NCI In Vivo Anticancer Drug Screen. Data for tumor model P388 Leukemia (intraperitoneal) in CD2F1 (CDF1) mice. The conditions noted are these: endpoint: median survival time, higher = longer survival. The gist of the method:
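Mice carrying the transplanted tumor received test compound or vehicle. Survival was recorded in each group, and the value is the treated-group measurement divided by that of the vehicle-treated control group.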

Where [1] appears, read: dose: 100.0 mg/kg/injection, schedule: Q01DX009 (ip), vehicle: saline.
Setting [2] is: dose: 50.0 mg/kg/injection, schedule: Q01DX009 (ip), vehicle: Klucel (hydroxypropylcellulose) (HPC).
[3] abbreviates: dose: 100.0 mg/kg/injection, schedule: Q01DX009 (ip), vehicle: Klucel (hydroxypropylcellulose) (HPC).
[4] abbreviates: dose: 200.0 mg/kg/injection, schedule: Q01DX009 (ip), vehicle: Klucel (hydroxypropylcellulose) (HPC).
Setting [5] is: dose: 25.0 mg/kg/injection, schedule: Q01DX009 (ip), vehicle: saline with Tween-80.
The mark [6] stands for this setting: dose: 50.0 mg/kg/injection, schedule: Q01DX009 (ip), vehicle: saline with Tween-80.
[7] abbreviates: dose: 100.0 mg/kg/injection, schedule: Q01DX009 (ip), vehicle: saline with Tween-80.
[8] abbreviates: dose: 200.0 mg/kg/injection, schedule: Q01DX009 (ip), vehicle: saline with Tween-80.
Setting [9] is: dose: 60.0 mg/kg/injection, schedule: Q01DX005 (ip), vehicle: saline with Tween-80.
[10] abbreviates: dose: 60.0 mg/kg/injection, schedule: Q01DX005 (ip), vehicle: Klucel (hydroxypropylcellulose) (HPC).
Setting [11] is: dose: 120.0 mg/kg/injection, schedule: Q01DX005 (ip), vehicle: Klucel (hydroxypropylcellulose) (HPC).
[12] abbreviates: dose: 240.0 mg/kg/injection, schedule: Q01DX005 (ip), vehicle: Klucel (hydroxypropylcellulose) (HPC).
The mark [13] stands for this setting: dose: 100.0 mg/kg/injection, schedule: Q01DX001 (ip), vehicle: saline with Tween-80.
Setting [14] is: dose: 200.0 mg/kg/injection, schedule: Q01DX001 (ip), vehicle: saline with Tween-80.
The mark [15] stands for this setting: dose: 400.0 mg/kg/injection, schedule: Q01DX001 (ip), vehicle: saline with Tween-80.

Take `O=C1OC[C@@H]2C=CC[C@H]12`: the T/C runs as follows: (dose: 50.0 mg/kg/injection, schedule: Q01DX005 (ip), vehicle: saline) 100 % of control; (dose: 100.0 mg/kg/injection, schedule: Q01DX005 (ip), vehicle: saline) 100 % of control; (dose: 200.0 mg/kg/injection, schedule: Q01DX005 (ip), vehicle: saline) 107 % of control.

Take `CC(Oc1cc(Cl)c(Cl)cc1Cl)C(=O)NC(Cc1ccccc1)C(=O)O` (configuration not stated): the T/C runs as follows: (dose: 50.0 mg/kg/injection, schedule: Q01DX005 (ip), vehicle: saline with Tween-80) 105 % of control; (dose: 100.0 mg/kg/injection, schedule: Q01DX005 (ip), vehicle: saline with Tween-80) 109 % of control; (dose: 200.0 mg/kg/injection, schedule: Q01DX005 (ip), vehicle: saline with Tween-80) 95 % of control.

Take `Cc1cc(O)ccc1O`: the T/C is 100 % of control and 116 % of control under setting [1]; 112 % of control and 117 % of control (dose: 200.0 mg/kg/injection, schedule: Q01DX009 (ip), vehicle: saline).

Regarding `Cc1cc(NCCN(C(C)C)C(C)C)nc(Nc2nc3cc(Cl)c(Cl)cc3[nH]2)n1`, the T/C was 100 % of control (dose: 6.25 mg/kg/injection, schedule: Q01DX009 (ip), vehicle: saline sonified) and 100 % of control (dose: 12.5 mg/kg/injection, schedule: Q01DX009 (ip), vehicle: saline sonified).

As to `CN(C)c1c([N+](=O)[O-])cc2[nH]cnc2c1[N+](=O)[O-]`, the T/C is, setting by setting: (dose: 3.12 mg/kg/injection, schedule: Q04DX003 (ip), vehicle: saline with Tween-80) 103 % of control; (dose: 6.25 mg/kg/injection, schedule: Q04DX003 (ip), vehicle: saline with Tween-80) 103 % of control; (dose: 12.5 mg/kg/injection, schedule: Q04DX003 (ip), vehicle: saline with Tween-80) 105 % of control.

Turning to `S=C(N/N=C/c1ccccn1)SCc1ccccc1`, the T/C runs as follows: under setting [2], 101 % of control; under setting [3], 104 % of control; under setting [4], 100 % of control.

Regarding `O=C1CCSC(=S)N1C(=O)c1ccccc1`, the T/C was 104 % of control under setting [2], 104 % of control under setting [3] and 109 % of control under setting [4].

Regarding `CC(C)CC(NC(=O)CCl)C(=O)O` (configuration not stated), the T/C under setting [5] was 108 % of control; the T/C under setting [6] was 108 % of control and 110 % of control; the T/C under setting [7] is 106 % of control and 113 % of control; the T/C under setting [8] was 96 % of control; the T/C (dose: 400.0 mg/kg/injection, schedule: Q01DX009 (ip), vehicle: saline with Tween-80) was 108 % of control.

On to `O=C(Nc1ccc(F)cc1F)Oc1cccc2cccnc12`, for which the T/C reads like this: under setting [2], 114 % of control; under setting [3], 112 % of control.

Regarding `COc1ccc(/C(O)=C/c2nc3cccc([N+](=O)[O-])c3[nH]c2=O)cc1`, the T/C by setting is: (dose: 15.0 mg/kg/injection, schedule: Q01DX005 (ip), vehicle: saline with Tween-80) 91 % of control; (dose: 30.0 mg/kg/injection, schedule: Q01DX005 (ip), vehicle: saline with Tween-80) 91 % of control; under setting [9], 86 % of control.

With `CC(=O)Nc1ccc(N=NNc2ccccc2)cc1`, the T/C was 100 % of control (dose: 3.12 mg/kg/injection, schedule: Q01DX001 (ip), vehicle: Klucel (hydroxypropylcellulose) (HPC)); 93 % of control (dose: 6.25 mg/kg/injection, schedule: Q01DX001 (ip), vehicle: Klucel (hydroxypropylcellulose) (HPC)); 99 % of control and 97 % of control (dose: 12.5 mg/kg/injection, schedule: Q01DX001 (ip), vehicle: Klucel (hydroxypropylcellulose) (HPC)).

With `CSCCC(N)C(=O)OCN1C(=O)C2C3C=CC(C2C1=O)C1C2C(=O)N(COC(=O)C(N)CCSC)C(=O)C2C31` (configuration not stated), the T/C by setting is: (dose: 12.5 mg/kg/injection, schedule: Q01DX009 (ip), vehicle: saline) 117 % of control; (dose: 25.0 mg/kg/injection, schedule: Q01DX009 (ip), vehicle: saline) 122 % of control and 93 % of control; (dose: 50.0 mg/kg/injection, schedule: Q01DX009 (ip), vehicle: saline) 109 % of control; under setting [1], 171 % of control and 200 % of control.

Turning to `CCOC(=O)/C=C1\CSC2=NC(c3ccccc3)CN21` (configuration not stated), the T/C was 94 % of control under setting [10], 94 % of control under setting [11] and 86 % of control under setting [12].

`O=C1CSC(=Nc2ccc(F)cc2F)N1Cc1cccs1`: the T/C under setting [10] was 102 % of control, the T/C under setting [11] was 113 % of control and the T/C under setting [12] was 103 % of control.

Consider `CCC1(CC)SC(C)(C)N(C=O)C1C(=O)O` (configuration not stated), for which the T/C by setting is: (dose: 100.0 mg/kg/injection, schedule: Q04DX002 (ip), vehicle: saline with Tween-80) 99 % of control; (dose: 200.0 mg/kg/injection, schedule: Q04DX002 (ip), vehicle: saline with Tween-80) 104 % of control; (dose: 400.0 mg/kg/injection, schedule: Q04DX002 (ip), vehicle: saline with Tween-80) 100 % of control.

As to `CC(=O)Oc1c2c(c(C)c3ccccc13)C(=O)c1cccnc1C2=O`, the T/C is 98 % of control (dose: 100.0 mg/kg/injection, schedule: Q01DX001 (ip), vehicle: saline); 89 % of control (dose: 200.0 mg/kg/injection, schedule: Q01DX001 (ip), vehicle: saline); 92 % of control (dose: 400.0 mg/kg/injection, schedule: Q01DX001 (ip), vehicle: saline).

Consider `Cn1c(-c2ccccc2)c2c(c1-c1ccccc1)C(=O)c1c(c(-c3ccccc3)n(C)c1-c1ccccc1)C2=O`, for which the T/C under setting [2] is 94 % of control, the T/C under setting [3] was 92 % of control and the T/C under setting [4] was 97 % of control.

Take `O=C(CCc1c[nH]c2ccccc12)c1ccccc1O`: the T/C reads like this: under setting [9], 98 % of control; (dose: 120.0 mg/kg/injection, schedule: Q01DX005 (ip), vehicle: saline with Tween-80) 100 % of control; (dose: 240.0 mg/kg/injection, schedule: Q01DX005 (ip), vehicle: saline with Tween-80) 92 % of control.

As to `CCN(CC)CCNC(=O)c1nn(-c2ccc(C)cc2)c2c1N(C)S(=O)(=O)c1ccccc1-2`, the T/C by setting is: under setting [13], 100 % of control; under setting [14], 97 % of control; under setting [15], 97 % of control.

On to `CNC1C(O)C2Oc3c(cc(O)c4c3C(=O)c3cc5c(c(O)c3C4=O)C(OC3OC(C)C(OC)C(C)(OC)C3OC)CC(C)(O)C5)C(C)(O2)C1O` (configuration not stated), for which the T/C reads like this: (dose: 2.06 mg/kg/injection, schedule: Q04DX003 (ip), vehicle: other) 97 % of control; (dose: 4.12 mg/kg/injection, schedule: Q04DX003 (ip), vehicle: other) 102 % of control; (dose: 8.25 mg/kg/injection, schedule: Q04DX003 (ip), vehicle: other) 103 % of control; (dose: 16.5 mg/kg/injection, schedule: Q04DX003 (ip), vehicle: other) 124 % of control; (dose: 33.0 mg/kg/injection, schedule: Q04DX003 (ip), vehicle: other) 124 % of control.

With `CS(C)(=O)=Nc1ccc(F)cc1`, the T/C was 99 % of control under setting [13], 99 % of control under setting [14] and 99 % of control under setting [15].

For the compound `O=c1c2ccccc2nc2sc3nc4ccccc4c(=O)n3n12`, the T/C is, setting by setting: (dose: 15.0 mg/kg/injection, schedule: Q01DX005 (ip), vehicle: Klucel (hydroxypropylcellulose) (HPC)) 94 % of control; (dose: 30.0 mg/kg/injection, schedule: Q01DX005 (ip), vehicle: Klucel (hydroxypropylcellulose) (HPC)) 91 % of control; under setting [10], 88 % of control and 92 % of control; under setting [11], 89 % of control; under setting [12], 96 % of control.

Regarding `CC(=O)Nc1ccc(C)cc1C1SCCS1`, the T/C is, setting by setting: under setting [5], 90 % of control; under setting [6], 105 % of control; under setting [7], 97 % of control.

Take `O=C(/C=C/C=C/c1ccccc1)c1ccco1`: the T/C reads like this: under setting [6], 94 % of control; under setting [7], 94 % of control; under setting [8], 99 % of control.

`CC(C)N(C(=S)/N=C1/SC(C)S(=O)(=O)N1C)C(C)C` (configuration not stated): the T/C is 117 % of control under setting [5], 97 % of control under setting [6] and 100 % of control under setting [7].

As to `C#CC(C)ON1C(=O)c2ccccc2C1=O` (configuration not stated), the T/C is, setting by setting: (dose: 100.0 mg/kg/injection, schedule: Q01DX001 (ip), vehicle: other) 109 % of control; (dose: 200.0 mg/kg/injection, schedule: Q01DX001 (ip), vehicle: other) 100 % of control; (dose: 400.0 mg/kg/injection, schedule: Q01DX001 (ip), vehicle: other) 100 % of control.
